Measurements published in US4485110A, “β-Lactam compounds, and use” (priority 1980, dated 1984).
Read-outs that look alike come from different tables or passages of the source.

What was measured:
Experiment in all cases: Antibacterial activity, broth MIC
Format in all cases: cell-based
S. sonnei MB 11967 = settings: Shigella sonnei, MB11967, compound alone
From the text: (§1) The antibacterial activity of a number of compounds described in the foregoing Examples against a number of organisms is shown in Tables 1 and 10.

P. vulgaris WO 91 = settings: Proteus vulgaris, WO91, compound alone
From the text: as §1

P. mirabilis 977 = settings: Proteus mirabilis, compound alone
From the text: as §1

B. subtilis A = settings: Bacillus subtilis, compound alone
From the text: as §1

S. typhimurium CT 10 = settings: Salmonella enterica, compound alone
From the text: as §1

S. aureus 1517 = settings: Staphylococcus aureus, compound alone
From the text: as §1

S. pneumoniae CN 33 = settings: Streptococcus pneumoniae, CN33, compound alone
From the text: as §1

P. rettgeri WM 16 = settings: Providencia rettgeri, WM16, compound alone
From the text: as §1

E. cloacae N 1 = settings: Enterobacter cloacae, N1, compound alone
From the text: as §1

P. morganii I 580 = settings: Morganella morganii, I580, compound alone
From the text: as §1

C. freundii E 8 = settings: Citrobacter freundii
From the text: as §1

E. coli ESS = settings: Escherichia coli, read-out: Broth MIC
From the text: as §1

S. faecalis I = settings: Enterococcus faecalis, read-out: Broth MIC
From the text: as §1

E. coli JT 39 R^+ = settings: Escherichia coli, read-out: Broth MIC
From the text: as §1

K. aerogenes A = settings: Klebsiella aerogenes, read-out: Broth MIC
From the text: as §1

P. aeruginosa A = settings: Pseudomonas aeruginosa, compound alone
From the text: as §1

E. coli 0111 = settings: Escherichia coli, compound alone
From the text: as §1

S. aureus Oxford = settings: Staphylococcus aureus, compound alone
From the text: as §1

S. pyogenes CN 10 = settings: Streptococcus pyogenes, CN10, compound alone
From the text: as §1

S. marcescens US 20 = settings: Serratia marcescens
From the text: as §1

S. aureus Russell = settings: Staphylococcus aureus, compound alone
From the text: as §1

[1] = E8, compound alone, broth, read-out: Broth MIC
[2] = US20, compound alone, broth, read-out: Broth MIC

SMILES	MIC (S. sonnei MB 11967)	MIC (P. vulgaris WO 91)	MIC (P. mirabilis 977)	MIC (B. subtilis A)	MIC (S. typhimurium CT 10)	MIC (S. aureus 1517)	MIC (P. rettgeri WM 16)	MIC (E. cloacae N 1)	MIC (P. morganii I 580)	MIC (C. freundii E 8; [1])	MIC (E. coli ESS; compound alone, broth)	MIC (S. faecalis I; compound alone, broth)	MIC (E. coli JT 39 R^+; compound alone, broth)	MIC (K. aerogenes A; compound alone, broth)	MIC (P. aeruginosa A)	MIC (E. coli 0111)	MIC (S. aureus Oxford)	MIC (S. pyogenes CN 10)	MIC (S. marcescens US 20; [2])	MIC (S. aureus Russell)	further results
C/C=C1\C(=O)N2C(C(=O)O)=C(SCC)SC12 (racemic) [Compound 29, (5RS)-Sodium (E)-6-Ethylidene-2-ethylthiopenem-3-carboxylate]	62 µg/mL	62 µg/mL	125 µg/mL	2 µg/mL	62 µg/mL	16 µg/mL	62 µg/mL	31 µg/mL	31 µg/mL	62 µg/mL	2 µg/mL	250 µg/mL	31 µg/mL	16 µg/mL	> 500 µg/mL	31 µg/mL	2 µg/mL	4 µg/mL	62 µg/mL	–	MIC (S. pneumoniae CN 33): 1 µg/mL
C/C=C1/C(=O)N2C(C(=O)O)=CSC12 (racemic) [Compound 40, (5RS)-Sodium(Z)-6-Ethylidenepenem-3-carboxylate]	62 µg/mL	250 µg/mL	250 µg/mL	31 µg/mL	62 µg/mL	125 µg/mL	125 µg/mL	125 µg/mL	250 µg/mL	125 µg/mL	16 µg/mL	> 250 µg/mL	62 µg/mL	62 µg/mL	250 µg/mL	62 µg/mL	8 µg/mL	8 µg/mL	250 µg/mL	16 µg/mL	MIC (S. pneumoniae CN 33): 31 µg/mL
C/C=C1/C(=O)N2C(C(=O)O)=C(CCC)SC12 (racemic) [Compound 49, (5RS)-Sodium(Z)-6-Ethylidene-2-n-propylpenem-3-carboxylate]	62 µg/mL	62 µg/mL	62 µg/mL	1 µg/mL	62 µg/mL	62 µg/mL	62 µg/mL	62 µg/mL	31 µg/mL	–	1 µg/mL	–	62 µg/mL	31 µg/mL	> 250 µg/mL	125 µg/mL	1 µg/mL	–	–	2 µg/mL	MIC (S. pneumoniae CN 33): ≤ 0.2 µg/mL; MIC (C. freundii E 8; E8, read-out: Broth MIC): 125 µg/mL; MIC (S. faecalis I): 125 µg/mL; MIC (S. marcescens US 20; US20, read-out: Broth MIC): 125 µg/mL
CC=C1C(=O)N2C(C(=O)O)=C(SCCNC(C)=O)SC12 (racemic) [Compound 59, (5RS)-Sodium 2-(2-Acetamidoethylthio)-6-ethylidenepenem-3-carboxylate]	25 µg/mL	25 µg/mL	25 µg/mL	3.1 µg/mL	12.5 µg/mL	> 100 µg/mL	25 µg/mL	25 µg/mL	25 µg/mL	25 µg/mL	3.1 µg/mL	100 µg/mL	–	–	> 100 µg/mL	25 µg/mL	3.1 µg/mL	≤ 0.1 µg/mL	25 µg/mL	3.1 µg/mL	MIC (S. pneumoniae CN 33): 0.2 µg/mL; MIC (E. coli JT 39 R^+): 12.5 µg/mL; MIC (K. aerogenes A): 12.5 µg/mL
C/C=C1/C(=O)N2C(C(=O)O)=C(C)SC12 (racemic) [Compound 76, (5RS)-Sodium (Z)-Ethylidene-2-methylpenem-3-carboxylate]	100 µg/mL	> 100 µg/mL	100 µg/mL	25 µg/mL	100 µg/mL	50 µg/mL	> 100 µg/mL	> 100 µg/mL	100 µg/mL	100 µg/mL	6.2 µg/mL	> 100 µg/mL	100 µg/mL	> 100 µg/mL	100 µg/mL	100 µg/mL	12.5 µg/mL	–	> 100 µg/mL	6.2 µg/mL	–
CC=C1C(=O)N2C(C(=O)O)=C(Sc3ccccn3)SC12 (racemic) [Compound 99, (5RS)-Sodium 6-Ethylidene-2-(2-pyridylthio)penem-3-carboxylate]	50 µg/mL	50 µg/mL	100 µg/mL	6.2 µg/mL	50 µg/mL	100 µg/mL	25 µg/mL	25 µg/mL	50 µg/mL	100 µg/mL	3.1 µg/mL	> 100 µg/mL	50 µg/mL	50 µg/mL	> 100 µg/mL	100 µg/mL	12.5 µg/mL	1.6 µg/mL	50 µg/mL	6.2 µg/mL	–
CC=C1C(=O)N2C(C(=O)O)=C(SCCN)SC12 (racemic) [Compound 101, (5RS)-Sodium 2-(2-aminoethylthio)-6-ethylidenepenem-3-carboxylate]	100 µg/mL	100 µg/mL	> 100 µg/mL	12.5 µg/mL	100 µg/mL	> 100 µg/mL	100 µg/mL	100 µg/mL	> 100 µg/mL	100 µg/mL	12.5 µg/mL	> 100 µg/mL	100 µg/mL	100 µg/mL	> 100 µg/mL	100 µg/mL	3.1 µg/mL	3.1 µg/mL	> 100 µg/mL	3.1 µg/mL	–
CC=C1C(=O)N2C(C(=O)O)=C([S+]([O-])CC)SC12 (racemic) [Compound 103, (5RS)-Sodium 6-Ethylidene-2-ethylsulphinylpenem-3-carboxylate]	> 100 µg/mL	> 100 µg/mL	100 µg/mL	25 µg/mL	> 100 µg/mL	> 100 µg/mL	> 100 µg/mL	> 100 µg/mL	> 100 µg/mL	> 100 µg/mL	100 µg/mL	> 100 µg/mL	> 100 µg/mL	> 100 µg/mL	> 100 µg/mL	> 100 µg/mL	50 µg/mL	12.5 µg/mL	> 100 µg/mL	> 100 µg/mL	MIC (S. pneumoniae CN 33): 25 µg/mL
CCSC1=C(C(=O)O)N2C(=O)C(=C(C)C)C2S1 (racemic) [Compound 129, (5RS)-Sodium 2-Ethylthio-6-isopropylidenepenem-3-carboxylate]	–	–	–	25 µg/mL	–	–	–	–	–	–	–	50 µg/mL	–	–	–	–	12.5 µg/mL	0.4 µg/mL	–	12.5 µg/mL	MIC (S. pneumoniae CN 33): 1.6 µg/mL; MIC (E. coli ESS): 12.5 µg/mL
CCSC1=C(C(=O)O)N2C(=O)C(=Cc3ccccc3)C2S1 (stereo not drawn) [Compound 118, (5RS)-Sodium (Z)-6-Benzylidene-2-ethylthiopenem-3-carboxylate]	> 100 µg/mL	> 100 µg/mL	> 100 µg/mL	12.5 µg/mL	> 100 µg/mL	100 µg/mL	> 100 µg/mL	> 100 µg/mL	> 100 µg/mL	> 100 µg/mL	–	> 100 µg/mL	> 100 µg/mL	> 100 µg/mL	> 100 µg/mL	> 100 µg/mL	1.6 µg/mL	1.6 µg/mL	> 100 µg/mL	3.1 µg/mL	MIC (S. pneumoniae CN 33): 1.6 µg/mL; MIC (E. coli ESS): > 1.6 µg/mL
